Source: patent US20260008818A1, “CYCLIC PEPTIDE OR SALT THEREOF, AND USES THEREOF” (FUJIFILM Corporation, priority 2023, published 2026)
Bridge positions count the residues as written; N and C are the ends. Ends that are not written are not given here. COCH2 = acetyl group that carries the bridge

Test system: Recombinant Human FGFR1 alpha (IIIc) Fc Chimera Protein
Test: Binding affinity of enzymatically synthesized cyclic peptide to FGFR by ELISA
Details: luminescence signal at reaction concentration 10 nmol/L, SEQ ID NO: 39 standardized to 1, enzyme synthesis product
Procedure, shortened: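 Graded A–D from luminescence at 10 nmol/L peptide, expressed relative to SEQ ID NO: 39 after subtracting wells lacking receptor. Read-out used anti-Myc antibody (2 h, RT) with chemiluminescent substrate, following 3 h RT binding of peptide to immobilized FGFR1α(IIIc)-Fc, 5 ng per well.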

Substance | Evaluation result of binding affinity to FGFR
172 (HCSYERLQFSGHEAPFRVK(COCH2)V; thioether 2-19 (inferred)) [compound 172] | B (0.5 or more and less than 0.7)
173 (HCSYERLQFTGHEAPFRVK(COCH2)V; thioether 2-19 (inferred)) [compound 173] | C (0.1 or more and less than 0.5)
174 (HCSYERLQFEGHEAPFRVK(COCH2)V; thioether 2-19 (inferred)) [compound 174] | B (0.5 or more and less than 0.7)
175 (HCSYERLQFRGHEAPFRVK(COCH2)V; thioether 2-19 (inferred)) [compound 175] | A (0.7 or more)
176 (HCSYERLQFHGHGAPFRVK(COCH2)V; thioether 2-19 (inferred)) [compound 176] | C (0.1 or more and less than 0.5)
177 (HCSYERLQFHGHPAPFRVK(COCH2)V; thioether 2-19 (inferred)) [compound 177] | A (0.7 or more)
178 (HCSYERLQFHGHLAPFRVK(COCH2)V; thioether 2-19 (inferred)) [compound 178] | A (0.7 or more)
179 (HCSYERLQFHGHIAPFRVK(COCH2)V; thioether 2-19 (inferred)) [compound 179] | A (0.7 or more)
180 (HCSYERLQFHGHVAPFRVK(COCH2)V; thioether 2-19 via Ac) [compound 180] | A (0.7 or more)
181 (HCSYERLQFHGHFAPFRVK(COCH2)V; thioether 2-19 via Ac) [compound 181] | A (0.7 or more)
182 (HCSYERLQFHGHYAPFRVK(COCH2)V; thioether 2-19 via Ac) [compound 182] | A (0.7 or more)
183 (HCSYERLQFHGHWAPFRVK(COCH2)V; thioether 2-19 via Ac) [compound 183] | A (0.7 or more)
184 (HCSYERLQFHGHNAPFRVK(COCH2)V; thioether 2-19 via Ac) [compound 184] | A (0.7 or more)
185 (HCSYERLQFHGHQAPFRVK(COCH2)V; thioether 2-19 via Ac) [compound 185] | A (0.7 or more)
186 (HCSYERLQFHGHSAPFRVK(COCH2)V; thioether 2-19 via Ac) [compound 186] | A (0.7 or more)
187 (HCSYERLQFHGHTAPFRVK(COCH2)V; thioether 2-19 via Ac) [compound 187] | A (0.7 or more)
188 (HCSYERLQFHGHDAPFRVK(COCH2)V; thioether 2-19 via Ac) [compound 188] | A (0.7 or more)
189 (HCSYERLQFHGHRAPFRVK(COCH2)V; thioether 2-19 via Ac) [compound 189] | A (0.7 or more)
190 (HCSYERLQFHGHHAPFRVK(COCH2)V; thioether 2-19 via Ac) [compound 190] | A (0.7 or more)
191 (HCSYERLQFHGHEAPFLVK(COCH2)V; thioether 2-19 via Ac) [compound 191] | A (0.7 or more)
192 (HCSYERLQFHGHEAPFIVK(COCH2)V; thioether 2-19 via Ac) [compound 192] | A (0.7 or more)
193 (HCSYERLQFHGHEAPFVVK(COCH2)V; thioether 2-19 via Ac) [compound 193] | A (0.7 or more)
194 (HCSYERLQFHGHEAPFFVK(COCH2)V; thioether 2-19 via Ac) [compound 194] | A (0.7 or more)
195 (HCSYERLQFHGHEAPFYVK(COCH2)V; thioether 2-19 via Ac) [compound 195] | A (0.7 or more)
196 (HCSYERLQFHGHEAPFWVK(COCH2)V; thioether 2-19 via Ac) [compound 196] | A (0.7 or more)
197 (HCSYERLQFHGHEAPFNVK(COCH2)V; thioether 2-19 via Ac) [compound 197] | A (0.7 or more)
198 (HCSYERLQFHGHEAPFQVK(COCH2)V; thioether 2-19 via Ac) [compound 198] | B (0.5 or more and less than 0.7)
199 (HCSYERLQFHGHEAPFSVK(COCH2)V; thioether 2-19 via Ac) [compound 199] | B (0.5 or more and less than 0.7)

Substance | Evaluation result of binding affinity to FGFR
200 (HCSYERLQFHGHEAPFTVK(COCH2)V; thioether 2-19 via Ac; not fully specified) [compound 200] | A (0.7 or more)
201 (HCSYERLQFHGHEAPFHVK(COCH2)V; thioether 2-19 via Ac; not fully specified) [compound 201] | A (0.7 or more)
202 (HCSYERLQFHGHEAPFRLK(COCH2)V; thioether 2-19 via Ac; not fully specified) [compound 202] | C (0.1 or more and less than 0.5)
203 (HCSYERLQFHGHEAPFRIK(COCH2)V; thioether 2-19 via Ac; not fully specified) [compound 203] | A (0.7 or more)
204 (HCSYERLQFHGHEAPFRFK(COCH2)V; thioether 2-19 via Ac; not fully specified) [compound 204] | C (0.1 or more and less than 0.5)
205 (HCSYERLQFHGHEAPFRYK(COCH2)V; thioether 2-19 via Ac; not fully specified) [compound 205] | B (0.5 or more and less than 0.7)
206 (HCSYERLQFHGHEAPFRNK(COCH2)V; thioether 2-19 via Ac; not fully specified) [compound 206] | C (0.1 or more and less than 0.5)
207 (HCSYERLQFHGHEAPFRSK(COCH2)V; thioether 2-19 via Ac; not fully specified) [compound 207] | C (0.1 or more and less than 0.5)
208 (HCSYERLQFHGHEAPFRTK(COCH2)V; thioether 2-19 via Ac; not fully specified) [compound 208] | C (0.1 or more and less than 0.5)
209 (HCSYERLQFHGHEAPFRHK(COCH2)V; thioether 2-19 via Ac; not fully specified) [compound 209] | B (0.5 or more and less than 0.7)
210 (HCSYERLQFHGHEAPFRVK(COCH2)G; thioether 2-19 via Ac; not fully specified) [compound 210] | B (0.5 or more and less than 0.7)
211 (HCSYERLQFHGHEAPFRVK(COCH2)L; thioether 2-19 via Ac; not fully specified) [compound 211] | A (0.7 or more)
212 (HCSYERLQFHGHEAPFRVK(COCH2)I; thioether 2-19 via Ac; not fully specified) [compound 212] | A (0.7 or more)
213 (HCSYERLQFHGHEAPFRVK(COCH2)Y; thioether 2-19 via Ac; not fully specified) [compound 213] | A (0.7 or more)
214 (HCSYERLQFHGHEAPFRVK(COCH2)F; thioether 2-19 via Ac; not fully specified) [compound 214] | B (0.5 or more and less than 0.7)
215 (HCSYERLQFHGHEAPFRVK(COCH2)W; thioether 2-19 via Ac; not fully specified) [compound 215] | B (0.5 or more and less than 0.7)
216 (HCSYERLQFHGHEAPFRVK(COCH2)N; thioether 2-19 via Ac; not fully specified) [compound 216] | A (0.7 or more)
217 (HCSYERLQFHGHEAPFRVK(COCH2)Q; thioether 2-19 via Ac; not fully specified) [compound 217] | A (0.7 or more)
218 (HCSYERLQFHGHEAPFRVK(COCH2)S; thioether 2-19 via Ac; not fully specified) [compound 218] | A (0.7 or more)
219 (HCSYERLQFHGHEAPFRVK(COCH2)T; thioether 2-19 via Ac; not fully specified) [compound 219] | A (0.7 or more)
220 (HCSYERLQFHGHEAPFRVK(COCH2)D; thioether 2-19 (inferred)) [compound 220] | C (0.1 or more and less than 0.5)
221 (HCSYERLQFHGHEAPFRVK(COCH2)E; thioether 2-19 (inferred)) [compound 221] | A (0.7 or more)
222 (HCSYERLQFHGHEAPFRVK(COCH2)R; thioether 2-19 (inferred)) [compound 222] | A (0.7 or more)
223 (HCSYERLQFHGHEAPFRVK(COCH2)H; thioether 2-19 (inferred)) [compound 223] | A (0.7 or more)
224 (HK(COCH2)SYERLQFHGHEAPFRVCV; thioether 2-19 (inferred)) [compound 224] | B (0.5 or more and less than 0.7)
225 (HCTWERLIFLGHIAPFWVK(COCH2)R; thioether 2-19 (inferred)) [compound 225] | C (0.1 or more and less than 0.5)
226 (HK(COCH2)TWERLIFLGHIAPFWVCR; thioether 2-19 (inferred)) [compound 226] | B (0.5 or more and less than 0.7)
